Data reported in US6780418B1, “Reagents and immunoassay for the detection and quantitative determination of mycothiol and precursors thereof” (The Regents of the University of California, priority 1997, dated 2004).

What was measured:
anti-mycothiol antibody = test: ELISA of Example 4: thiol bound to maleimide-activated BSA, detected with affinity-purified anti-MSH antibody; format: binding, rabbit; settings: for ELISA result (recognition by the anti-mycothiol antibody): thiol at the 10 pmol level
Method: Known amounts of pure MSH (typically from 0 to 1 pmol/well) were reacted with maleimide-activated BSA (Pierce); maleimide activation levels were 16-19 mol maleimide per mol BSA. The maleimide-activated BSA was reconstituted to 10 mg/ml and this stock solution stored at −70° C. until needed. The stock solution was diluted to a working concentration of 5 ng/μl just before use and kept chilled on ice. MSH from the concentrated stock solution in 0.1% TFA was diluted into TBS (Tris-buffered saline: 0.1 M Tris, pH 7.3, 0.15 M NaCl, 0.04% NaN3) on ice and the diluted samples (40 μl per well) immediately added to the maleimide-activated BSA (60 μl per well). A “zero” standard consisted of TBS in place of an MSH solution. In practice, 168 μl of thiol standard were added to 252 μl of maleimide-activated BSA solution. Samples of unknown thiol content were reacted with maleimide-activated BSA in the same manner, providing a small excess volume for pipetting of quadruplicate samples of 100 μl per well. After 2-hour incubation at room temperature, the thiol-BSA samples were aliquoted (100 μl per well) into Immulon-4 microplate wells and allowed to bind overnight at 4° C. Unbound protein was removed by gentle aspiration with mild vacuum and the wells blocked for 2 hours at room temperature with 1% v/v fish-skin gelatin in TBS. The wells were drained, washed once with TBST (TBS plus 0.05% Tween-20), and drained. Washes involved filling wells to the top with wash buffer followed by gentle aspiration to drain the wells. Primary antibody (affinity-purified anti-MSH, 100 μl per well) was added and the plate incubated for 4 hours at room temperature. The wells were drained, washed twice with TBST, and drained. Secondary antibody (goat anti-rabbit [whole IgG] F(ab′)2 fragments conjugated to bovine intestinal alkaline phosphatase, 100 μl per well) was added and the plate incubated for 1 hour at room temperature. The wells were drained, washed twice with TBST, twice with TBS, and drained. The alkaline phosphatase substrate (3.8 mM p-nitrophenylphosphate in 0.2 M Tris, pH 9.8, 200 μl per well) was added and the plate incubated 30 minutes at room temperature. The reaction was quenched by addition of 50 μl per well stop solution (4 N NaOH). The plate was read at 405 nm on a microplate reader (Model EL311, Bio-Tek Instruments) that was programmed to automatically subtract blank values read from wells that received only the blocking agent, wash solutions, p-nitrophenyl phosphate, and stop solution.
Since reaction of typical cellular constituents with maleimide-BSA is largely limited to thiols, it was considered important to ascertain whether any typical biological thiols would produce false-positive assay results.
In order to test whether the anti-mycothiol antibody recognizes component parts of the mycothiol molecule we also tested the ELISA on N-acetyl-L-cysteine, L-cysteinyl-glucosamine, (2-L-cysteinyl)amido-2-deoxy-α-D-glucopyranose), and N-acetyl-L-cysteinyl-glucosamine (2-N-acetyl-L-cysteinyl)amido-2-deoxy-α-D-glucopyranose).

[1] = target: ATP-dependent ligase activity (Mycolicibacterium smegmatis, UniProt A0QZY0); test: Assay of ATP-dependent ligase activity with GlcN-Ins plus Cys/AcCys in cell extract supernatant; format: biochemical, M. smegmatis; settings: for MSH content / Cys-GlcN-Ins concentration: 100 μM substrate, 50 μM GlcN-Ins, 1 mM ATP; for Cys-GlcN-Ins concentration: pH 7.5, 60 min
Sequence of ATP-dependent ligase activity (A0QZY0 whole entry): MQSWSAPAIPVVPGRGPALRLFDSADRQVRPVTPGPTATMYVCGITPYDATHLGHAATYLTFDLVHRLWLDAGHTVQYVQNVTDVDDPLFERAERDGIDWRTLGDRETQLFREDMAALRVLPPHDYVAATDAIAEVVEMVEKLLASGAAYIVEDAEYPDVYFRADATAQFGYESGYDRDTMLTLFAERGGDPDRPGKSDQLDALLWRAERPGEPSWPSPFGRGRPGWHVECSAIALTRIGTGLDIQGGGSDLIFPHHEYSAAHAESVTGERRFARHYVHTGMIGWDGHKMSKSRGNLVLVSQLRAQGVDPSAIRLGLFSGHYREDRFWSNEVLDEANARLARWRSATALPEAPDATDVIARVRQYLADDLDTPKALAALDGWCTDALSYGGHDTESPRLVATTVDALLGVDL

M. smegmatis mc^2155 = test: Effect of nutrient supplementation upon mycothiol intermediate levels and growth; format: cell-based, Mycobacterium smegmatis
Method: To test whether an increase in cellular Ins content would influence the levels of MSH or potential MSH intermediates, we examined M. smegmatis mc^2155 incubated with Ins. We initially tested Ins uptake by adding 37 μM ^14C-inositol to a culture at A600=1.0 and determining the loss of radiolabel from the medium and its appearance in cells. After 2.5 h, 77% of the counts had been lost from the medium to the cells, showing that M. smegmatis efficiently imports inositol. Next we harvested cells after growth to mid log phase, resuspended them at A600=1.05 in Middlebrook 7H9 media with glucose and 1 MM Ins at 37° C., and took samples for analysis at 0, 0.5 and 2.5 h (FIG. 17A).
To test whether changes in cellular Cys levels would influence MSH or MSH intermediates, we incubated cells in medium containing 10 mM AcCys. Since AcCys is readily taken up by passive diffusion we expected this to produce markedly elevated levels of cellular AcCys and, through deacylation, Cys. […] The Cys-GlcN-Ins content was elevated 20-fold over normal immediately after the start of incubation but then fell a factor of 70 over the next 2.5 h. Least affected was the MSH content which was elevated ˜40% after 2.5 h.

[2] = format: physicochemical
Method: The crude extract was purified by reversed-phase HPLC on a preparative C 18 column, 25 mm×250 mm (Vydac) by isocratic elution with 0.1% trifluoracetic acid (TFA) in ultrapure water at a flow rate of 10 ml/min. Under these conditions MSH eluted as the free thiol at 8 minutes and as its disulfide (MSSM) at 12 minutes. Thiol concentration was determined by titration with DTNB. Purified MSH was stored as a concentrated (0.11 M) stock solution in 0.1% TFA (aqueous), frozen at −70° C.
To produce biotinylated MSH suitable for use as a standard, the following procedure was carried out: 5.0 μL of 3.7 mM pure MSH in 0.1% TFA was added to 12.3 μL 1.5 mM MPB in DMSO/acetonitrile/100 mM phosphate buffer, pH 7.0 (1:4:5). The mixture was allowed to react 1 hour at room temperature. To determine the extent of biotinylation, unreacted MSH was measured by titration with DTNB. The standard was stored in 1.0 μL aliquots frozen at −70° C. For use in ELISA analyses, the standard was diluted to a concentration of 1.0 μM in Tris-buffered saline, pH 7.3, containing 0.04% w/v sodium azide, 0.05% v/v Tween 20 and 0.1% w/v BSA (TBSTB); this solution was stable for several (>6) months when stored refrigerated as indicated by consistency of ELISA measurements.

N[C@@H](CS)C(=O)O [Cys, L-cysteine]
ELISA result (recognition by the anti-mycothiol antibody) (anti-mycothiol antibody): negative | MSH content ([1]; 0 min): 15 µM | MSH content ([1]; 60 min): 13 µM | Cys-GlcN-Ins concentration [1]: 26 µM

N[C@@H](CCC(=O)N[C@@H](CS)C(=O)NCC(=O)O)C(=O)O [glutathione, reference compound]
ELISA result (recognition by the anti-mycothiol antibody) (anti-mycothiol antibody): negative

^14C-inositol [reference compound]
counts lost from the medium to the cells (uptake) (M. smegmatis mc^2155; 37 μM, culture at A600=1.0, after 2.5 h): 77%

CC(=O)N[C@@H](CS)C(=O)N[C@H]1[C@@H](OC2[C@H](O)[C@H](O)C(O)[C@H](O)[C@H]2O)O[C@H](CO)[C@@H](O)[C@@H]1O (stereo partly drawn) [MSH, 1-D-myo-inosityl-2-(N-acetyl-L-cysteinyl)amido-2-deoxy-α-D-glucopyranoside]
stability on storage [2]: stable as the free thiol for many months

O[C@H]1[C@H](O)[C@@H](O)[C@H](O)[C@@H](O)[C@H]1O [Ins, myo-inositol]
MSH and H2S levels (M. smegmatis mc^2155; 1 mM Ins, 37° C., 0 to 2.5 h): did not change to a significant extent | GlcN-Ins content relative to normal (M. smegmatis mc^2155; 1 mM Ins, 37° C., at 0.5 h): about half normal | GlcN-Ins content relative to normal (M. smegmatis mc^2155; 1 mM Ins, 37° C., at 2.5 h): returning to normal | GlcN-Ins content relative to normal (M. smegmatis mc^2155; 1 mM Ins, 37° C., initially (0 h)): more than 3 fold | increase of A600 value (M. smegmatis mc^2155; 1 mM Ins, over the 2.5 h incubation): 40%

N[C@@H](CS)C(=O)N[C@@H]1[C@@H](O)[C@H](O)[C@@H](CO)O[C@@H]1O [Cys-GlcN, 2-(L-cysteinyl)amido-2-deoxy-α-D-glucopyranoside]
ELISA result (recognition by the anti-mycothiol antibody) (anti-mycothiol antibody): negative

CC(C)(CO)[C@@H](O)C(=O)NCCC(=O)NCCS [pantetheine, reference compound]
ELISA result (recognition by the anti-mycothiol antibody) (anti-mycothiol antibody): negative

CC(C)(COP(=O)(O)OP(=O)(O)OC[C@H]1O[C@@H](n2cnc3c(N)ncnc32)[C@H](O)[C@@H]1OP(=O)(O)O)[C@@H](O)C(=O)NCCC(=O)NCCS [coenzyme A, reference compound]
ELISA result (recognition by the anti-mycothiol antibody) (anti-mycothiol antibody): negative

CC(=O)N[C@@H](CS)C(=O)N[C@@H]1[C@@H](O)[C@H](O)[C@@H](CO)O[C@@H]1O [AcCys-GlcN, 2-(N-acetyl-L-cysteinyl)amido-2-deoxy-α-d-glucopyranoside]
sensitivity of the assay relative to that for MSH (anti-mycothiol antibody; of that for MSH): about 4% | ELISA result (recognition by the anti-mycothiol antibody) (anti-mycothiol antibody): positive

CC(=O)N[C@@H](CS)C(=O)O [AcCys, N-acetyl-cysteine]
effect on growth (M. smegmatis mc^2155; 10 mM AcCys, 2.5 h): significantly inhibits growth | MSH content elevated (M. smegmatis mc^2155; 10 mM AcCys, after 2.5 h): ~40% | Cys-GlcN-Ins content elevated over normal (M. smegmatis mc^2155; 10 mM AcCys, immediately after the start of incubation): 20 fold | change of A600 value (M. smegmatis mc^2155; 10 mM AcCys, over the 2.5 h incubation period): 5% | fall of Cys-GlcN-Ins content (factor) (M. smegmatis mc^2155; 10 mM AcCys, over the next 2.5 h): 70 | Cys level increased (M. smegmatis mc^2155; medium containing 10 mM AcCys): 50 fold | H2S level (M. smegmatis mc^2155; medium containing 10 mM AcCys): roughly doubled | cellular AcCys level elevated over the normal level (M. smegmatis mc^2155; medium containing 10 mM AcCys): 1000 fold | decrease in GlcN-Ins content (M. smegmatis mc^2155; medium containing 10 mM AcCys): 5- to 10 fold | ELISA result (recognition by the anti-mycothiol antibody) (anti-mycothiol antibody): negative | [Cys]/[AcCys] ([1]; 100 μM AcCys, by 60 min): ~3 | MSH content ([1]; 60 min): 15 µM | Cys-GlcN-Ins concentration [1]: 20 µM
